Test results reported in PubChem BioAssay AID248 (DTP/NCI, 2004).
Toxic doses and inconclusive results are not listed. Cut-off read from the data, not from the text of the source: active = T/C of 150% or more; inactive = T/C below 125%.

Tested on: L1210 leukemia ip in BDF1 mice, survival T/C
Test: NCI In Vivo Anticancer Drug Screen. Data for tumor model L1210 Leukemia (intraperitoneal) in B6D2F1 (BDF1) mice
Conditions: endpoint: mean survival time, higher = longer survival
Method in brief: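 Survival endpoint. Drug-treated group vs vehicle group, expressed as T divided by C. Tumor passaged by transplantation.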

[1] = dose: 100.0 mg/kg/injection, schedule: Q04DX003 (ip), vehicle: saline with Tween-80
[2] = dose: 200.0 mg/kg/injection, schedule: Q04DX003 (ip), vehicle: saline with Tween-80
[3] = dose: 400.0 mg/kg/injection, schedule: Q04DX003 (ip), vehicle: saline with Tween-80
[4] = dose: 100.0 mg/kg/injection, schedule: Q01DX009 (ip), vehicle: saline with Tween-80
[5] = dose: 200.0 mg/kg/injection, schedule: Q01DX009 (ip), vehicle: saline with Tween-80
[6] = dose: 400.0 mg/kg/injection, schedule: Q01DX009 (ip), vehicle: saline with Tween-80

Measured: T/C

COc1cc(Nc2cc(N)nc(N)n2)cc(OC)c1OC
inactive: [1] 95 % of control | [2] 98 % of control | [3] 88 % of control

CC(=O)CCCSCCOC(C)=O
inactive: dose: 100.0 mg/kg/injection, schedule: Q01DX009 (ip), vehicle: Klucel (hydroxypropylcellulose) (HPC) 95 % of control | dose: 200.0 mg/kg/injection, schedule: Q01DX009 (ip), vehicle: Klucel (hydroxypropylcellulose) (HPC) 101 % of control | dose: 400.0 mg/kg/injection, schedule: Q01DX009 (ip), vehicle: Klucel (hydroxypropylcellulose) (HPC) 101 % of control

c1ccc2c(c1)NC(OC1CCCCC1)S2 (centres undefined)
inactive: dose: 100.0 mg/kg/injection, schedule: Q04DX002 (ip), vehicle: saline with Tween-80 101 % of control | dose: 200.0 mg/kg/injection, schedule: Q04DX002 (ip), vehicle: saline with Tween-80 90 % of control | dose: 400.0 mg/kg/injection, schedule: Q04DX002 (ip), vehicle: saline with Tween-80 90 % of control

O=C1c2ccccc2CC1(Br)C(Br)c1ccccc1 (centres undefined)
inactive: dose: 100.0 mg/kg/injection, schedule: Q01DX009 (ip), vehicle: saline sonified 99 % of control | [4] 96 % of control | dose: 100.0 mg/kg/injection, schedule: Q04DX003 (ip), vehicle: Klucel (hydroxypropylcellulose) (HPC) 104 % of control | [1] 107 % of control | dose: 200.0 mg/kg/injection, schedule: Q01DX009 (ip), vehicle: saline sonified 95 % of control | [5] 91 % of control | dose: 200.0 mg/kg/injection, schedule: Q04DX003 (ip), vehicle: Klucel (hydroxypropylcellulose) (HPC) 101 % of control | [2] 103 % of control | dose: 400.0 mg/kg/injection, schedule: Q01DX009 (ip), vehicle: saline sonified 94 % of control | [6] 89 % of control | dose: 400.0 mg/kg/injection, schedule: Q04DX003 (ip), vehicle: Klucel (hydroxypropylcellulose) (HPC) 98 % of control | [3] 104 % of control

COC(=O)Nc1cccc(OC(=O)NCC(C)C)c1
inactive: [4] 87 % of control | [5] 91 % of control | [6] 96 % of control
